Measurements from ChEMBL document CHEMBL5143580, “Ophiorrhines F and G, Key Biogenetic Intermediates of Ophiorrhine Alkaloids from Ophiorrhiza japonica and Their Immunosuppressant Activities” (J Nat Prod, 2022).

How the values were obtained:
[1] = Selectivity index, ratio of CC50 for BALB/c mouse Splenocyte to IC50 for Immunosuppressive activity in BALB/c mouse Splenocyte assessed as inhibition of LPS-induced B-cell proliferation; type: toxicity; details: splenocytes, read-out: Ratio CC50/IC50
[2] = Selectivity index, ratio of CC50 for BALB/c mouse Splenocyte to IC50 for Immunosuppressive activity in BALB/c mouse Splenocyte assessed as inhibition of concanavalin A-induced T-cell proliferation; type: toxicity; details: splenocytes, read-out: Ratio CC50/IC50
Splenocyte [3] = experiment: Immunosuppressive activity in BALB/c mouse Splenocyte assessed as inhibition of LPS induced B-cell proliferation by [3H]-thymidine incorporation based beta scintillation counter analysis; type: functional
Splenocyte [4] = experiment: Immunosuppressive activity in BALB/c mouse Splenocyte assessed as inhibition of concanavalin A induced T-cell proliferation by [3H]-thymidine incorporation based beta scintillation counter analysis; type: functional
[5] = Cytotoxicity in BALB/c mouse Splenocyte assessed as reduction in cell viability incubated for 48 hrs by CCK-8 assay; type: toxicity, cell-based; details: splenocytes

SMILES | selectivity ratio [1] | selectivity ratio [2] | IC50 (Splenocyte [3]) | IC50 (Splenocyte [4]) | CC50 at 48 h [5]
C=C[C@H]1[C@H](O[C@@H]2O[C@H](CO)[C@@H](O)[C@H](O)[C@H]2O)OC=C(C(=O)OC)[C@H]1CC(=O)c1[nH]c2ccccc2c1CC(=O)NC | 3.59 | < 0.85 | 47.4 µM | > 200 µM | 170 µM
C=C[C@H]1[C@H](O[C@@H]2O[C@H](CO)[C@@H](O)[C@H](O)[C@H]2O)OC=C(C(=O)OC)[C@H]1CC(=O)c1[nH]c2ccccc2c1[C@H](OC)C(=O)NC | > 548 | < 1.04 | < 0.38 µM | > 200 µM | 208 µM
